Among the data in US5698547A, “Cephalosporin antibiotics” (Microcide Pharmaceuticals, Inc., priority 1995, dated 1997) are MIC values, retold here.

Structures are written as SMILES. In brackets after ≈: the same amount, converted by molar mass. Counter-ions that a name gives are not always drawn.

In the test the test system is S. aureus Col (Meth^R) (lac^-). Nature of the test: MIC by agar dilution, S. aureus Col (Meth^R) (lac^-). The class given is cell-based. As to conditions: Staphylococcus aureus; agar dilution; S. aureus Col (Meth^R) (lac^-); read-out: MIC. In short, it runs like this: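 Agar dilution per NCCLS (1991): two-fold dilutions from 128 μg/mL down to ≤0.25 μg/mL in Mueller-Hinton agar, each level in duplicate. Spots of about 10^4 cfu of log-phase culture; 16-20 h at 35°-36° C. MIC in μg/ml is the lowest concentration inhibiting growth.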
Background: Agar dilution tests growth on a series of plates holding different concentrations.
One may read the MIC as the lowest concentration that inhibits growth of the organism. As to `N=C(N)SCc1cccc(SC2=C(C(=O)O)N3C(=O)[C@@H](NC(=O)Cc4ccccc4)[C@H]3SC2)c1` [Cmpd 80, (7R)-7-[(Phenylacetyl)amino]-3-(3-isothiouroniummethylphenylthio)-3-cephem-4-carboxylate, inner salt], the MIC was determined as 2 µg/mL.
The same measure for `N=C(N)SCc1ccccc1SC1=C(C(=O)O)N2C(=O)[C@@H](NC(=O)CSCCCI)[C@H]2SC1` [Cmpd 134, (7R)-7-[(3-iodoprop-1-ylthioacetyl)amino]-3-(2-isothiouroniummethylphenylthio)-3-cephem-4-carboxylate, inner salt]: 2 µg/mL.
The figure for `Cn1cc[n+](Cc2ccc(-c3ccccc3SC3=C(C(=O)[O-])N4C(=O)[C@@H](NC(=O)Cc5ccccc5)[C@H]4SC3)s2)c1` [Cmpd 45, (7R)-7-[(Phenylacetyl)amino]-3-(2-(2-(N-methylimidazoliummethyl)thien-5-yl)phenylthio)-3-cephem-4-carboxylic acid] is 4 µg/mL (≈ 6.64 µM); for `O=C(Cc1cccs1)N[C@@H]1C(=O)N2C(C(=O)O)=C(Sc3cc(Cl)ccc3Cl)CS[C@H]12` [Cmpd 26, (7R)-7-[(2-Thienylacetyl)amino]-3-(2,5-dichlorophenylthio)-3-cephem-4-carboxylic acid] it is 0.5 µg/mL (≈ 0.997 µM).
For the compound `O=C(CSc1ccccc1)N[C@@H]1C(=O)N2C(C(=O)O)=C(Sc3cc(Cl)ccc3Cl)CS[C@H]12` [Cmpd 35, (7R)-7-[(Phenylthioacetyl)amino]-3-(2,5-dichlorophenylthio)-3-cephem-4-carboxylic acid], the MIC was 0.5 µg/mL (≈ 0.948 µM).
The same measure for `CSCC(=O)N[C@@H]1C(=O)N2C(C(=O)O)=C(Sc3ccccc3CSC(=N)NN)CS[C@H]12` [Cmpd 133, (7R)-7-[(methylthioacetyl)amino]-3-(2-(N-amino)isothiouroniummethylphenylthio)-3-cephem-4-carboxylate, inner salt]: 2 to 4 µg/mL; for `O=C(Cc1ccccc1)N[C@@H]1C(=O)N2C(C(=O)O)=C(Sc3ccc4ccccc4c3Br)CS[C@H]12` [Cmpd 57, (7R)-7-[(Phenylacetyl)amino]-3-(1-bromo-naphthalen-2-ylthio)-3-cephem-4-carboxylic acid]: 0.5 µg/mL (≈ 0.9 µM).
The figure for `CN(C)C(SCc1ccc(SC2=C(C(=O)[O-])N3C(=O)[C@@H](NC(=O)Cc4ccccc4)[C@H]3SC2)c(I)c1)=[N+](C)C` [Cmpd 62, (7R)-7-[(Phenylacetyl)amino]-3-(4-tetramethylisothiouroniummethyl-2-iodophenylthio)-3-cephem-4-carboxylate, inner salt] is 4 µg/mL.
For `N#CCC(=O)N[C@@H]1C(=O)N2C(C(=O)O)=C(Sc3ccc(CSC(=N)N)cc3I)CS[C@H]12` [Cmpd 66, (7R)-7-[(Cyanoacetyl)amino]-3-(4-isothiouroniummethyl-2-iodophenylthio)-3-cephem-4-carboxylate, inner salt], the minimum inhibitory concentration (MIC) came out at 2 µg/mL.
As for `O=Cc1ccccc1SC1=C(C(=O)O)N2C(=O)[C@@H](NC(=O)Cc3ccccc3)[C@H]2SC1` [Cmpd 50, (7R)-7-[(Phenylacetyl)amino]-3-(2-formylphenylthio)-3-cephem-4-carboxylic acid], the MIC was determined as 2 µg/mL (≈ 4.4 µM).
The same measure for `O=C(Cc1ccccc1)N[C@@H]1C(=O)N2C(C(=O)O)=C(Sc3cccc4ccccc34)CS[C@H]12` [Cmpd 54, (7R)-7-[(Phenylacetyl)amino]-3-(1-naphthalenylthio)-3-cephem-4-carboxylic acid]: 1 µg/mL (≈ 2.1 µM).
The figure for `N#Cc1ccc(-c2ccccc2SC2=C(C(=O)O)N3C(=O)[C@@H](NC(=O)Cc4ccccc4)[C@H]3SC2)cc1` [Cmpd 23, (7R)-7-[(Phenylacetyl)amino]-3-(2-(4-cyanophenyl)phenylthio)-3-cephem-4-carboxylic acid] is 2 µg/mL (≈ 3.79 µM); for `O=C(Cc1ccccc1)N[C@@H]1C(=O)N2C(C(=O)O)=C(Sc3ccccc3-c3ccco3)CS[C@H]12` [Cmpd 27, (7R)-7-[(Phenylacetyl)amino]-3-(2-(2-furyl)phenylthio)-3-cephem-4-carboxylic acid] it is 1 µg/mL (≈ 2.03 µM); for `O=C(Cc1cccs1)N[C@@H]1C(=O)N2C(C(=O)O)=C(Sc3ccnn3-c3ccccc3)CS[C@H]12` [Cmpd 116, (7R)-7-[(2-thienylacetyl)amino]-3-(1-N-phenylpyrazol-5-ylthio)-3-cephem-4-carboxylic acid] it is 4 µg/mL (≈ 8.02 µM).
The same measure for `O=C(Cc1ccccc1)N[C@@H]1C(=O)N2C(C(=O)O)=C(Sc3cccc(-c4ccccc4)c3)CS[C@H]12` [Cmpd 10, (7R)-7-[(Phenylacetyl)amino]-3-(3-biphenylthio)-3-cephem-4-carboxylic acid]: 8 µg/mL (≈ 15.9 µM).
`O=C(Cc1ccccc1)N[C@@H]1C(=O)N2C(C(=O)O)=C(Sc3ccccc3CSC3=NCCN3)CS[C@H]12` [Cmpd 72]: the MIC turned out to be 4 µg/mL (≈ 7.4 µM).
The same measure for `O=C(Cc1ccccc1)N[C@@H]1C(=O)N2C(C(=O)O)=C(Sc3ccc(-c4ccccc4)cc3F)CS[C@H]12` [Cmpd 13, (7R)-7-[(Phenylacetyl)amino]-3-(2-fluoro-4-biphenylthio)-3-cephem-4-carboxylic acid]: 4 µg/mL (≈ 7.68 µM); for `CC(C)(C)c1ccccc1SC1=C(C(=O)O)N2C(=O)[C@@H](NC(=O)Cc3ccccc3)[C@H]2SC1` [Cmpd 46, (7R)-7-[(Phenylacetyl)amino]-3-(2-tert-butylphenylthio)-3-cephem-4-carboxylic acid]: 1 µg/mL (≈ 2.07 µM); for `CCCCCC(=O)N[C@@H]1C(=O)N2C(C(=O)O)=C(Sc3ccnn3-c3ccccc3)CS[C@H]12` [Cmpd 109, (7R)-7-[(hexanoyl)amino]-3-(1-N-phenylpyrazol-5-ylthio)-3-cephem-4-carboxylic acid]: 4 µg/mL (≈ 8.46 µM).
The figure for `O=C(Cc1ccccc1)N[C@@H]1C(=O)N2C(C(=O)O)=C(Sc3ccc(Cl)c(Cl)c3)CS[C@H]12` [Cmpd 18, (7R)-7-[(Phenylacetyl)amino]-3-(3,4-dichlorophenylthio)-3-cephem-4-carboxylic acid] is 4 µg/mL (≈ 8.07 µM); for `Nc1nc(/C(=N/OCCF)C(=O)N[C@@H]2C(=O)N3C(C(=O)O)=C(Sc4ccnn4-c4ccccc4)CS[C@H]23)c(Cl)s1` [Cmpd 98, (7R)-7-[(Z)-2-(2-amino-5-chlorothiazol-4-yl)-2-(2-fluoroethyloxyimino)acetamido]-3-(1-N-phenylpyrazol-5-ylthio)-3-cephem-4-carboxylic acid] it is 2 µg/mL (≈ 3.2 µM).
The figure for `O=C(Cc1ccccc1)N[C@@H]1C(=O)N2C(C(=O)O)=C(Sc3cccc(I)c3)CS[C@H]12` [Cmpd 2, (7R)-7-[(Phenylacetyl)amino]-3-(m-iodophenylthio)-3-cephem-4-carboxylic acid] is 2 µg/mL (≈ 3.62 µM).
Regarding `C[n+]1ccc(SCc2ccccc2SC2=C(C(=O)[O-])N3C(=O)[C@@H](NC(=O)Cc4ccccc4)[C@H]3SC2)cc1` [Cmpd 73, (7R)-7-[(Phenylacetyl)amino]-3-(2-(N-methylpyridin-4-ium)thiomethyl)phenylthio)-3-cephem-4-carboxylate, inner salt], the MIC worked out at 4 µg/mL.
The figure for `CSCC(=O)N[C@@H]1C(=O)N2C(C(=O)O)=C(Sc3ccccc3CSC(=N)NC(=N)N)CS[C@H]12` [Cmpd 126, (7R)-7-[(methylthioacetyl)amino]-3-(2-(N-amidino)isothiouroniummethylphenylthio)-3-cephem-4-carboxylate, inner salt] is 8 µg/mL; for `Cc1nnc(SCc2ccccc2SC2=C(C(=O)O)N3C(=O)[C@@H](NC(=O)Cc4ccccc4)[C@H]3SC2)s1` [Cmpd 77] it is 8 µg/mL (≈ 14 µM).
The figure for `O=C(Cc1ccccc1)N[C@@H]1C(=O)N2C(C(=O)O)=C(Sc3cc(F)ccc3Br)CS[C@H]12` [Cmpd 33, (7R)-7-[(Phenylacetyl)amino]-3-(2-bromo-5-fluorophenylthio)-3-cephem-4-carboxylic acid] is 1 µg/mL (≈ 1.91 µM).
The same measure for `N=C(N)NCc1ccccc1SC1=C(C(=O)O)N2C(=O)[C@@H](NC(=O)Cc3ccccc3)[C@H]2SC1` [Cmpd 128, (7R)-7-[(Phenylacetyl)amino]-3-(2-guanidiniummethylphenylthio)-3-cephem-4-carboxylate, inner salt]: 8 µg/mL; for `CC(C)Oc1ccccc1SC1=C(C(=O)O)N2C(=O)[C@@H](NC(=O)Cc3ccccc3)[C@H]2SC1` [Cmpd 47, (7R)-7-[(Phenylacetyl)amino]-3-(2-isopropyloxyphenylthio)-3-cephem-4-carboxylic acid]: 1 µg/mL (≈ 2.06 µM).
